{
  "source": "patent US20100272829A1",
  "about": "“COMPOSITION FOR TRANSDERMAL OR TRANSMUCOSAL ADMINISTRATION” (priority 2007, published 2010)",
  "key": {"[1]": {"system": "Malassezia furfur NBRC 0656", "experiment": "Antibacterial test II (MIC) by an agar medium", "type": "cell-based", "conditions": "YM agar medium added with olive oil, 28° C., 10^5cfu/mL", "description": "With respect to the composition of zinc pyrithione and hydrous titanium oxide (Example 3), an antibacterial test (MIC) against Malassezia furfur by an agar medium was performed in comparison with zinc pyrithione.\nSample 19: Composition of zinc pyrithione (manufactured by Kolon Life Science Inc.) and hydrous titanium oxide (Example 3) Sample 20: Zinc pyrithione (manufactured by Kolon Life Science Inc.) Test fungi: Malassezia furfur NBRC 0656 Test medium: YM agar medium added with olive oil Test conditions: culture at 28° C. for 7 days"}, "[2]": {"experiment": "Solubility in artificial seawater (zinc determined by atomic absorption spectrometry)", "type": "physicochemical", "description": "The solubility of samples shown below in artificial sweater was measured.\nArtificial sweater (pH of 7.8) was added to each sample shown below to make total amount of 500 mL, followed by shaking at 20° C. for 24 hours. After filtration, determination of zinc was performed by subjecting the filtrate to atomic absorption spectrometry."}, "[3]": {"system": "Malassezia furfur NBRC 0656", "experiment": "Antibacterial test I (MIC) by a liquid culture method", "type": "cell-based", "conditions": "Sabouraud glucose medium + 1% olive oil, shaking at 30° C., 10^6cfu/mL", "description": "With respect to the composition of zinc pyrithione and hydrous titanium oxide of Example 2, an antibacterial test (MIC) against Malassezia furfur by a liquid culture method was performed in comparison with zinc pyrithione.\nSample 17: Composition of zinc pyrithione (manufactured by Arch Chemicals, Inc.) and hydrous titanium oxide (Example 2) Sample 18: Zinc pyrithione (manufactured by Arch Chemicals, Inc.) Test fungi: Malassezia furfur NBRC 0656 Test medium: 1% olive oil is added to Sabouraud glucose medium Test conditions: shaking culture at 30° C. for 4 days (120 rpm)"}, "[4]": {"experiment": "Yellowness (b* value) of water suspension samples allowed to stand outside for 10 days (photolysis)", "type": "physicochemical", "conditions": "suspension in distilled water, dried and ground", "method": "The following water suspension samples are charged in a glass bottle, allowed to stand outside for 10 days, dried and ground, and then yellowness (b* value) was measured by a colorimeter."}, "[5]": {"conditions": "artificial seawater pH 7.8, shaking at 20° C. for 24 hours, filtrate"}},
  "data": [
    {"substance": "zinc pyrithione [Sample 6]", "values": [
      {"measurement": "MIC, 7 days", "setting": "[1]", "value": 6.25, "unit": "µg/mL"},
      {"measurement": "Solubility in artificial seawater II: Value in terms of zinc pyrithione", "setting": "[2]; artificial seawater pH 7.8, 20° C., 24 hours", "value": 5.24, "unit": "µg/mL"},
      {"measurement": "Solubility in artificial seawater II: Quantitative value of zinc", "setting": "[2]; artificial seawater pH 7.8, 20° C., 24 hours, for samples 7 and 8 zinc derived from zinc pyrithione and zinc oxide", "value": 1.07, "unit": "µg/mL"}
    ]},
    {"substance": "zinc pyrithione [Sample 2]", "values": [
      {"measurement": "MIC, 2 days", "setting": "[3]; 2 days", "value": 6.25, "unit": "µg/mL"},
      {"measurement": "MIC, 4 days", "setting": "[3]; 4 days", "value": 6.25, "unit": "µg/mL"},
      {"measurement": "Solubility in artificial seawater I: Quantitative value of zinc", "setting": "[2]; [5]", "value": 1.16, "unit": "µg/mL"},
      {"measurement": "Solubility in artificial seawater I: Value in terms of zinc pyrithione", "setting": "[2]; [5]", "value": 5.64, "unit": "µg/mL"}
    ]},
    {"substance": "zinc pyrithione [Sample 9]", "values": [
      {"measurement": "Yellowness (b* value)", "setting": "[4]", "value": 8.80}
    ]}
  ]
}
